Drawing on the NIST ThermoML archive (doi:10.1016/j.fluid.2007.09.021), this text covers activity coefficient for twelve compounds.

The data set can be described thus: activity coefficient (dimensionless); of the first substance listed, at infinite dilution; xn = mol fraction of the nth substance listed. The note with it: Liquid, x1 = 0.
[1] abbreviates: 368.15 K, Differential ebulliometry.
Where [2] appears, read: 378.15 K, Differential ebulliometry.
The mark [3] stands for this setting: 388.15 K, Differential ebulliometry.
Setting [4] is: 398.15 K, Differential ebulliometry.
The mark [5] stands for this setting: 409.15 K, Differential ebulliometry.
The mark [6] stands for this setting: 343.15 K, Differential ebulliometry.

± gives the expanded uncertainty stated by the source.

`CCc1ccccc1` [ethylbenzene] + CCCCO: the activity coefficient (323.15 K, Chromatography) is 3.84 ± 0.15.

For the compound `CCCCCCO` [hexan-1-ol] + CCc1ccccc1, the activity coefficient by setting is: under setting [1], 3.25 ± 0.06; under setting [2], 2.95 ± 0.18; under setting [3], 2.62 ± 0.06; under setting [4], 2.43 ± 0.1; under setting [5], 2.11 ± 0.04.

On to `CCCCO` [butan-1-ol] + CCc1ccccc1, for which the activity coefficient is, setting by setting: (303.15 K, Chromatography) 11.8 ± 0.6; (313.15 K, Chromatography) 9.49 ± 0.5; (323.15 K, Chromatography) 7.63 ± 0.39; under setting [4], 2.55 ± 0.26; under setting [5], 2.24 ± 0.14.

`CCCCCO` [pentan-1-ol] + CCc1ccccc1: the activity coefficient under setting [1] stood at 3.62 ± 0.08; the activity coefficient under setting [2] worked out at 3.19 ± 0.06; the activity coefficient under setting [3] stood at 2.89 ± 0.06; the activity coefficient under setting [4] was found to be 2.57 ± 0.06; the activity coefficient under setting [5] came to 2.29 ± 0.06.

For the compound `CCc1ccccc1` [ethylbenzene] + CCCCCCO, under “323.15 K, Chromatography”, the activity coefficient is 2.77 ± 0.11.

Consider `CCO` [ethanol] + CCc1ccccc1, for which the activity coefficient runs as follows: (293.15 K, Chromatography) 20.1 ± 0.8; (303.15 K, Chromatography) 16.2 ± 0.7; (313.15 K, Chromatography) 13.7 ± 0.7; (323.15 K, Chromatography) 11.2 ± 0.4.

As for `CCc1ccccc1` [ethylbenzene] + CCO, the activity coefficient is, setting by setting: (323.15 K, Differential ebulliometry) 6.86 ± 0.14; (333.15 K, Differential ebulliometry) 6.53 ± 0.14; under setting [6], 6.19 ± 0.12; (351.15 K, Differential ebulliometry) 5.9 ± 0.12.

Consider `CCc1ccccc1` [ethylbenzene] + CO, for which the activity coefficient is, setting by setting: (308.15 K, Differential ebulliometry) 12.8 ± 0.2; (318.15 K, Differential ebulliometry) 12.2 ± 0.2; (328.15 K, Differential ebulliometry) 11.8 ± 0.2; (337.15 K, Differential ebulliometry) 11.4 ± 0.2.

As for `CCc1ccccc1` [ethylbenzene] + CCCCCO, the activity coefficient (323.15 K, Chromatography) worked out at 3.37 ± 0.12.

Turning to `CCCO` [propan-1-ol] + CCc1ccccc1, the activity coefficient reads like this: (293.15 K, Chromatography) 15.8 ± 0.8; (303.15 K, Chromatography) 12.9 ± 0.7; (313.15 K, Chromatography) 10.3 ± 0.7; (323.15 K, Chromatography) 8.7 ± 0.44.

As to `CO` [methanol] + CCc1ccccc1, the activity coefficient runs as follows: (293.15 K, Chromatography) 26.2 ± 1.3; (303.15 K, Chromatography) 21.4 ± 1.1; (313.15 K, Chromatography) 18 ± 1; (323.15 K, Chromatography) 15 ± 0.8.

Take `CCc1ccccc1` [ethylbenzene] + CCCO: the activity coefficient is 4.48 ± 0.08 under setting [6]; 4.21 ± 0.08 (353.15 K, Differential ebulliometry); 3.98 ± 0.08 (363.15 K, Differential ebulliometry); 3.8 ± 0.08 (370.15 K, Differential ebulliometry).
